According to US10717720B2, “Modified compound of andrographolide” (Heilongjiang Zhenbaodao Pharmaceutical Co., Ltd., priority 2015, dated 2020):
Where two headings read alike, the source gives them in different places.

Test system: LPS-induced IL-6 release level from THP-1 cells
Experiment: Test of IL-6 release from THP-1 cells (LPS-induced, IL-6 in supernatant detected by CBA)
Type: cell-based
Details: Homo sapiens, read-out: Inhibition rate @ 10 uM
Experimental: Test of IL-6 Release from THP-1 Cells
The inhibitory effect of the compound on LPS-induced IL-6 release level from THP-1 cells was evaluated by measuring the level of IL-6 in the cell culture supernatant.
4 ul was taken from each above solution and added to lml of culture solution to make 120 uM, 40 uM, 12 uM, 4 uM. 50 ul per well was taken and added to wells with cells to give final concentrations of 30 uM, 10 uM, 3 uM, and 1 uM, respectively. Dexamethasone was added as a positive drug into an individual cell well with a final concentration of 100 nM. • c) Cell stimulation
The LPS 1 mg/ml solution was diluted to 800 ng/ml with the culture solution and added to the cell culture wells at 50 ul/well. • d) Cell incubation and detection
The cell culture plate was placed in a 37° C. incubator, and the supernatant was collected after culturing for 24 hours. The level of IL-6 in the supernatant was detected by CBA.

[1] = inflammatory factor IL-6 detected by CBA, compound 10 uM, LPS-stimulated THP-1 cells, supernatant after 24 hours

Compound	inhibition at 10 µM (THP-1, 24 h) [%]	inhibition at 10 µM [1] [%]
C=C1CCC2[C@]3(C)CO[C@@H](C4CCCC4)O[C@@H]3CC[C@@]2(C)[C@@H]1CCOC1CCN(C(=O)CN)CC1 (stereo partly drawn) [Compound 373, 2-Amino-1-(4-(2-((3R,4aR,6aS,7R,10bR)-3-cyclopentyl-6a,10b-dimethyl-8-methylenedecahydro-1H-naphtho[2,1-d][1,3]dioxin-7-yl)ethoxy)piperidine-1-yl)acetamide]	30 to 60	
C=C1CCC2[C@]3(C)CO[C@@H](C4CCCC4)O[C@@H]3CC[C@@]2(C)[C@@H]1CCO (stereo partly drawn) [Compound 399, 2-((3R,4aR,6aS,7R,10bR)-3-cyclopentyl-6a,10b-dimethyl-8-dihydromethylenedecahydro-1H-naphtho[2,1-d][1,3]dioxin-7-yl)ethanol]		> 60
C=C1CCC2[C@]3(C)CO[C@@H](C4CCCC4)O[C@@H]3CC[C@@]2(C)[C@@H]1CCN1CCC(CO)CC1 (stereo partly drawn) [Compound 002, (1-(2-((3R,4aR,6aS,7R,10bR)-3-cyclopentyl-6a,10b-dimethyl-8-methylene-decahydro-1H-naphtho[2,1-d][1,3]dioxin-7-yl)ethyl)piperidin-4-yl)methanol]		< 30
C=C1CCC2[C@](C)(CO)[C@H](O)CC[C@@]2(C)[C@@H]1CCN1CCC(CO)CC1 (stereo partly drawn) [Compound 265]		< 30
C=C1CCC2[C@]3(C)CO[C@@H](C4CCCC4)O[C@@H]3CC[C@@]2(C)[C@@H]1CCOC1CCN(CC(F)(F)F)CC1 (stereo partly drawn) [Compound 483, 4-(2-((3R,4aR,6aS,7R,10bR)-3-cyclopentyl-6a,10b-dimethyl-8-dihydromethylenedecahydro-1H-naphtho[2,1-d][1,3]dioxin-7-yl)ethoxy)-1-(2,2,2,-trifluoroethyl)piperidine]		30 to 60
C=C1CCC2[C@]3(C)CO[C@@H](C4CCCC4)O[C@@H]3CC[C@@]2(C)[C@@H]1CCN1CC(CO)C1 (stereo partly drawn) [Compound 355]		< 30
C=C1CCC2[C@]3(C)CO[C@@H](CCC(=O)OC)O[C@@H]3CC[C@@]2(C)[C@@H]1CCOc1ccncc1 (stereo partly drawn) [Compound 405]		< 30
C=C1CCC2[C@]3(C)CO[C@@H](C4CCCC4)O[C@@H]3CC[C@@]2(C)[C@@H]1CCOc1cccnc1 (stereo partly drawn) [Compound 310, 3-(2-((3R,4aR,6aS,7R,10bR)-3-cyclopentyl-6a,10b-dimethyl-8-dihydromethylenedecahydro-1H-naphtho[2,1-d][1,3]dioxin-7-yl)ethoxy)-pyridine]		> 60
C=C1CCC2[C@]3(C)CO[C@@H](C4CCOCC4)O[C@@H]3CC[C@@]2(C)[C@@H]1CCOc1ccncc1 (stereo partly drawn) [Compound 446, 4-(2-((3R,4aR,6aS,7R,10bR)-6a,10b-dimethyl-8-dihydromethylene-3-(tetrahydro-2H-pyran-4-yl)decahydro-1H-naphtho[2,1-d][1,3]dioxin-7-yl)ethoxy)pyridine]		< 30
C=C1CCC2[C@]3(C)CO[C@@H](C4CCCC4)O[C@@H]3CC[C@@]2(C)[C@@H]1CCOc1cc[nH]c(=O)c1 (stereo partly drawn) [Compound 430, 4-(2-((3R,4aR,6aS,7R,10bR)-3-cyclopentyl-6a,10b-dimethyl-8-dihydromethylenedecahydro-1H-naphtho[2,1-d][1,3]dioxin-7-yl)ethoxy)pyridin-2(1H)-one]		30 to 60
C=C1CCC2[C@]3(C)CO[C@@H](C4CCCC4)O[C@@H]3CC[C@@]2(C)[C@@H]1CCOc1ccccc1C(=O)O (stereo partly drawn) [Compound 407, 2-(2-((3R,4aR,6aS,7R,10bR)-3-cyclopentyl-6a,10b-dimethyl-8-dihydromethylenedecahydro-1H-naphtho[2,1-d][1,3]dioxin-7-yl)ethoxy)benzoic acid]		> 60
C=C1CCC2[C@]3(C)CO[C@@H](C4CCC4)O[C@@H]3CC[C@@]2(C)[C@@H]1CCOc1ccncc1 (stereo partly drawn) [Compound 412, 4-(2-((3R,4aR,6aS,7R,10bR)-3-cyclobutyl-6a,10b-dimethyl-8-dihydromethylenedecahydro-1H-naphtho[2,1-d][1,3]dioxin-7-yl)ethoxy)pyridine]		> 60
